{
  "source": "patent US8546357B2",
  "about": "“Boron-containing small molecules for controlling ectoparasites” (priority 2011, dated 2013)",
  "system": "cat flea (Ctenocephalides felis)",
  "assay": "Residual efficacy against adult cat flea infestations on dogs, oral",
  "type": "in vivo",
  "settings": "Day 32",
  "method": "Immediately following removal of D. variabilis ticks on Day 30, dogs were co-infested with approximately 50 adult, unfed brown dog ticks (R. sanguineus, approximately 50% male and 50% female) and approximately 100 adult, unfed cat fleas (C. felis, approximately 50% male and 50% female). Ticks and fleas were counted and removed on Day 32 (approximately 48 hours after infestation). GM percent efficacy of treatments against both tick species and fleas was calculated using the following formula: […]\nThe therapeutic (knockdown) and residual efficacy of 7, administered orally at a point dose of 35 mg/kg bodyweight, was evaluated against adult tick (Dermacentor variabilis and Rhipicephalus sanguineus) and adult cat flea (Ctenocephalides felis) infestations on dogs. Twelve (12) male and female beagle dogs were allocated to either an untreated, negative control group or 7 group (n=6 dogs per group). Dogs were infested with approximately 50 unfed, adult D. variabilis ticks on Days −1, 5, 12, 19, 28, 35 and 42. On Day 0, dogs were orally administered gelatin capsules containing Compound 8194 (50% technical active, 47% microcrystalline cellulose and 3% croscarmellose sodium, w/w) at a point dose of 35 mg/kg. D. variabilis tick counts and classification were conducted on Day 1 (thumb count, approximately 24 hours after treatment) and Days 2, 7, 14, 21, 30, 37 and 44 (approximately 48 hours after treatment). Following removal of D. variabilis ticks on Day 30, all dogs were co-infested with approximately 50 unfed, adult brown dog ticks (R. sanguineus) and approximately 100 unfed, adult cat fleas (C. felis). Brown dog tick and cat flea counts were conducted on Day 32 (approximately 48 hours after infestation). GM percent efficacy of treatments against both tick species and fleas was calculated using the following formula: […]\nThe therapeutic (knockdown) and residual efficacy of S-enantiomer, 9, administered orally at a point dose of 25 mg/kg bodyweight, was evaluated against adult tick (Dermacentor variabilis and Rhipicephalus sanguineus) and adult cat flea (Ctenocephalides felis) infestations on dogs. Twelve (12) male and female beagle dogs were allocated to either an untreated, negative control group or 9 group (n=6 dogs per group). Dogs were infested with approximately 50 unfed, adult D. variabilis ticks on Days −1, 5, 12, 19, and 28. On Day 0, dogs were orally administered gelatin capsules containing 9 (50% technical active, 47% microcrystalline cellulose and 3% croscarmellose sodium, w/w) at a point dose of 25 mg/kg. D. variabilis tick counts and classification were conducted on Day 1 (thumb count, approximately 24 hours after treatment) and Days 2, 7, 14, 21 and 30 (approximately 48 hours after treatment). Following removal of D. variabilis ticks on Day 30, all dogs were co-infested with approximately 50 unfed, adult brown dog ticks (R. sanguineus) and approximately 100 unfed, adult cat fleas (C. felis). Brown dog tick and cat flea counts were conducted on Day 32 (approximately 48 hours after infestation). GM percent efficacy of treatments against both tick species and fleas was calculated using the following formula: […]",
  "data": [
    {"smiles": "Cc1cc(C2=NOC(c3cc(Cl)c(Cl)c(Cl)c3)(C(F)(F)F)C2)ccc1C(=O)NCc1ccc2c(c1)B(O)OC2(C)C", "note": "(centres unmarked) [Compound 7, N-((1-Hydroxy-3,3-dimethyl-1,3-dihydrobenzo[c][1,2]oxaborol-6-yl)methyl)-2-methyl-4-(5-(3,4,5-trichlorophenyl)-5-(trifluoromethyl)-4,5-dihydroisoxazol-3-yl)benzamide]", "values": [
      {"measurement": "Residual efficacy", "setting": "Example 7, oral capsule 35 mg/kg", "result": 100, "unit": "%"},
      {"measurement": "Geometric mean group live parasite counts", "setting": "Table 2, oral capsule 25 mg/kg", "result": 0.9}
    ]}
  ]
}
